The source of these data is patent publication US12012440B2, “Compositions and methods for treatment of fungal infections” (priority 2020, dated 2024).

Bridge positions count the residues as written; N and C are the ends. Ends that are not written are not given here.

Assay [1] has as its system C. albicans SC5314. As to the kind of experiment: Murine in vivo model of disseminated candidiasis: survival and body weight. To be noted: for survival of treated mice compared to saline controls, log-rank P: observed 26 days p.i.; for survival of treated mice compared to saline controls, log-rank P / survival efficacy compared with 5 mg/kg fluconazole: FIG. 9; for survival efficacy: 30 days p.i.; for survival as efficacy metric compared with Cyclic Peptide 5: candidemia model, FIGS. 10 to 15; for survival by end point analysis compared with fluconazole: χ^2 analysis at day 30 p.i.; for survival efficacy compared with 5 mg/kg fluconazole: 0.25 mg/kg Cyclic Peptide 5, 5 mg/kg RTD-1. On the procedure: Mice were infected i.v. at T=0 with 3×10^5 blastospores of C. albicans genetically defined reference strain SC5314.
Mice were infected i.v. at T=0 with 3×10^5 blastospores of C. albicans SC5314. At T=24 h, mice were treated i.p. daily for 7 d w.
In activity studies the synthetic cyclic tetradecapeptide Cyclic Peptide 5 (SEQ ID NO. 6), which was identified initially as having significant antifungal activity, was used as a model peptide. Briefly, 7-8 week old, immunocompetent, female BALB/c mice were challenged i.v. at T=0 with 3×10^5 CFU of C. albicans SC5314. […]
Under these test protocols C. albicans-infected mice treated with saline presented with ruffled fur and significant weight loss, and became moribund within 5-10 days, by which time there was >30% body weight loss.

Assay [2] has as its system C. albicans SC5314. Kind of assay: Renal fungal burden in kidney homogenates, murine disseminated candidiasis model. It counts as in vivo. Particulars: FIG. 16; for renal fungal burden compared with fluconazole / renal fungal burden compared with fluconazole, P (Fisher's LSD test): long term survivors 30 days p.i. The source says:
In activity studies the synthetic cyclic tetradecapeptide Cyclic Peptide 5 (SEQ ID NO. 6), which was identified initially as having significant antifungal activity, was used as a model peptide. Briefly, 7-8 week old, immunocompetent, female BALB/c mice were challenged i.v. at T=0 with 3×10^5 CFU of C. albicans SC5314.

In assay [3] the test system is susceptible and multiple drug resistant strains of C. albicans. Particulars: long term, on treatment with RTD-1; cited from earlier work.
The test system of assay [4] is C. albicans. To be noted: cited from earlier work.
Where [5] appears, read: 5 mg/kg i.p. daily for 7 d from T=24 h.

As to `CC[C@H](C)C[C@H](C)CCCCCCCCC(=O)N[C@H]1C[C@@H](O)[C@@H](NCCN)NC(=O)[C@@H]2[C@@H](O)CCN2C(=O)[C@H]([C@H](O)CCN)NC(=O)[C@H]([C@H](O)[C@@H](O)c2ccc(O)cc2)NC(=O)[C@@H]2C[C@@H](O)CN2C(=O)[C@H]([C@@H](C)O)NC1=O` [Caspofungin, caspofungin, reference compound], in assay [1] (setting [5]), the “survival of treated mice compared to saline controls, log-rank P” value is 3.4×10^−6.

For the compound `OC(Cn1cncn1)(Cn1cncn1)c1ccc(F)cc1F` [Fluconazole, fluconazole, reference compound], in assay [1] (setting [5]), the “survival of treated mice compared to saline controls, log-rank P” value is on record as 3.4×10^−6. Moreover, the renal fungal burden result in assay [2] (5 mg/kg, long term survivors 30 days p.i. vs moribund saline controls) was “reduced fungal burden”.

For “Cyclic Peptide 1: synthetic cyclic tetradecapeptide θ-defensin analog; positions 3-14,1,2: C S C R R R F C L C R R G V (GVCSCRRRFCLCRR; cyclic backbone; Cyclic Peptide 1)”, the survival efficacy entry in assay [1] (0.1 mg/kg i.p. daily for 7 d) is reported as “effective”. Further, the survival efficacy result in assay [1] (0.25 mg/kg i.p. daily for 7 d) was “effective”. In assay [1], the “survival as efficacy metric compared with Cyclic Peptide 5” value is listed as “equivalent or superior to Cyclic Peptide 5” and the “survival by end point analysis compared with fluconazole” value is reported as “more effective than fluconazole”. Moreover, in assay [2], the “renal fungal burden compared with fluconazole” value was “reduced fungal burden to a greater extent than fluconazole” and the “renal fungal burden compared with fluconazole, P (Fisher's LSD test)” value was 3.5×10^−5.

On to “Cyclic Peptide 2: synthetic cyclic tetradecapeptide θ-defensin analog; positions 3-14,1,2: C S C R R R F C I C R R G V (cyclo(GVCSCRRRFCICRR); disulfide 5-10, 3-12)”, for which the “survival as efficacy metric compared with Cyclic Peptide 5” value in assay [1] was “equivalent or superior to Cyclic Peptide 5”.

“Cyclic Peptide 3: synthetic cyclic tetradecapeptide θ-defensin analog; positions 3-14,1,2: C I C R R R V C I C R R G V (GVCICRRRVCICRR; cyclic backbone; Cyclic Peptide 3)”: the survival efficacy result in assay [1] (0.1 mg/kg i.p. daily for 7 d) was “effective”. Besides, in assay [1], the “survival as efficacy metric compared with Cyclic Peptide 5” value is on record as “equivalent or superior to Cyclic Peptide 5” and the “survival by end point analysis compared with fluconazole” value was “more effective than fluconazole”. Also, in assay [2], the “renal fungal burden compared with fluconazole” value is “reduced fungal burden to a greater extent than fluconazole” and the “renal fungal burden compared with fluconazole, P (Fisher's LSD test)” value is 7.4×10^−3.

“Cyclic Peptide 4: synthetic cyclic tetradecapeptide θ-defensin analog; positions 3-14,1,2: C I C R R R A C L C R R G L (GLCICRRRACLCRR; cyclic backbone; Cyclic Peptide 4)”: the survival efficacy entry in assay [1] (0.25 mg/kg i.p. daily for 7 d) is given as “effective”. Besides, in assay [1], the “survival as efficacy metric compared with Cyclic Peptide 5” value is on record as “equivalent or superior to Cyclic Peptide 5” and the “survival by end point analysis compared with fluconazole” value is listed as “more effective than fluconazole”. In addition, in assay [2], the “renal fungal burden compared with fluconazole” value is recorded as “reduced fungal burden to a greater extent than fluconazole” and the “renal fungal burden compared with fluconazole, P (Fisher's LSD test)” value was determined as 0.02.

In the case of “Cyclic Peptide 5: model synthetic cyclic tetradecapeptide θ-defensin analog; positions 3-14,1,2: C I C R R R F C L C R R G V (GVCICRRRFCLCRR; cyclic backbone; Cyclic Peptide 5)”, the “survival efficacy compared with 5 mg/kg fluconazole” value in assay [1] was “more effective than 5 mg/kg of fluconazole”. The “survival efficacy compared with RTD-1” value in assay [1] (0.25 mg/kg Cyclic Peptide 5 vs 5 mg/kg RTD-1, i.p. once a day for 7 days, BALB/c mice) is listed as “more effective than 5 mg/kg of RTD-1”. Besides, in assay [1] (0.25 mg/kg i.p. daily for 7 d from T=24 h), the “survival of treated mice compared to saline controls, log-rank P” value was 2.3×10^−7. In assay [1] (0.25 mg/kg or 0.1 mg/kg, results similar to treatment with saline), the “survival efficacy (FIG. 10)” value is reported as “relatively ineffective”. Moreover, in assay [2], the “renal fungal burden compared with fluconazole” value is recorded as “reduced fungal burden to a greater extent than fluconazole” and the “renal fungal burden compared with fluconazole, P (Fisher's LSD test)” value is recorded as 3×10^−3.

“Cyclic Peptide 6: synthetic cyclic tetradecapeptide θ-defensin analog; positions 3-14,1,2: C R C R R G V C R C R R G V (GVCRCRRGVCRCRR; not fully specified (bridges); ends and bridges not checked; also: cyclic (type not given here))”: in assay [1], the “survival as efficacy metric compared with Cyclic Peptide 5” value is given as “equivalent or superior to Cyclic Peptide 5” and the “survival by end point analysis compared with fluconazole” value is “more effective than fluconazole”. For the same compound, in assay [1] (peptides at 0.25 mg/kg, FIG. 15), the “survival compared with fluconazole and Cyclic Peptide 5” value was “survival that exceeded that of both a prior art antifungal drug (fluconazole) and Circular Peptide 5”.

With “RTD-1: naturally occurring θ-defensin of rhesus monkeys, cyclic octadecapeptide with 3 disulfide bonds (cyclo(GFCRCLCRRGVCRCICTR); disulfide (positions not given here); not fully specified (bridges); also: three disulfide bonds, pairing not given here; listed as Macaca mulatta)”, the “survival efficacy compared with 5 mg/kg fluconazole” value in assay [1] is “more effective than 5 mg/kg of fluconazole”. The “survival of treated mice compared to saline controls, log-rank P” value in assay [1] (setting [5]) is 3.4×10^−6. Also, in assay [3], the “pro-inflammatory cytokine production in vivo” value was “reduction in long term production of pro-inflammatory cytokines”. In addition, in assay [4] (presence of serum), the “in vitro antifungal activity in presence of serum” value is “abolished by the presence of serum”. Further, the “in vitro active concentration relative to concentrations effective in vivo” value in assay [4] (vs murine animal model studies) is on record as at least 50 fold.
